Reference: patent USRE48461E1, “Modulation of androgen receptor expression” (Ionis Pharmaceuticals, Inc., priority 2012, dated 2021)

What was measured:
Assay type in all cases: cell-based, human
PSA mRNA = experiment: PSA expression in C4-2B cells (Example 30); settings: 48 hrs
Method: (§1) Cells were plated at 1,000 cells per well. […] ISIS 549148 was included as a negative control. […] After an incubation period of 48 hrs, RNA levels of AR, PSA and TMPRSS2 were measured.
(§2) Cells were plated at 2,000 cells per well and cultured in CSS media with 1 nM DHT. […] ISIS 549148 was included as a negative control. […] After an incubation period of 48 hrs, RNA levels of AR, PSA and TMPRSS2 were measured. In the absence of DHT, AR expression in C4-2 cells was 188%, PSA expression was 43% and TMPRSS2 expression was 27% compared to the untreated control.

C4-2B cells = experiment: C4-2B cell proliferation (complete or CSS+DHT medium; Example 30); settings: 5 days; for Proliferation (% untreated control): C4-2B cells
Method: After a treatment period of 5 days in complete medium or CSS+1 nM DHT medium, the proliferative capacity of the cancer cells was measured with using CellTiter 96® AQueous One or CellTiter-Glo® Solution Cell Proliferation kit (Promega), following the manufacturer's instructions.

TMPRSS2 mRNA [1] = experiment: Time-course TMPRSS2 expression in C4-2B cells
Method: C4-2B cells were plated at 1,000 cells per well in complete medium. […] ISIS 549148 was included as a negative control. […] After a treatment period of 8 hours, 24 hours, and 48 hours, AR expression was measured with primer probe set hAR-LTS00943. Results are presented in Tables 70-72 as percent expression of AR, relative to non-treated cells.
Expression analysis of prostate-specific antigen (PSA) and TMPRSS2 were also analyzed. Results are presented in Tables 73-75 as percent inhibition of PSA expression and Tables 76-78 as percent inhibition of TMPRSS2 expression, relative to non-treated cells.

AR mRNA [2] = experiment: Time-course AR mRNA expression in C4-2B cells (8, 24, 48 hours); settings: for Percent expression of AR compared to the control group in 8 hours / Percent expression of AR compared to the control group in 24 hours / Percent expression of AR compared to the control group in 48 hours: C4-2B cells
Method: C4-2B cells were plated at 1,000 cells per well in complete medium. […] After a treatment period of 8 hours, 24 hours, and 48 hours, AR expression was measured with primer probe set hAR-LTS00943.

AR mRNA [3] = experiment: AR RNA expression in C4-2 cells (complete, CSS+DHT medium); settings: 48 hrs; for Percent expression of AR / AR expression: C4-2 cells; for Percent expression of AR: CSS + DHT medium
Method: (§3) Cells were plated at 1,000 cells per well. […] After an incubation period of 48 hrs, RNA levels of AR, PSA and TMPRSS2 were measured.
(§4) Cells were plated at 2,000 cells per well and cultured in CSS media with 1 nM DHT. […] After an incubation period of 48 hrs, RNA levels of AR, PSA and TMPRSS2 were measured.

AR mRNA [4] = experiment: AR RNA expression in C4-2B cells (complete, CSS+DHT medium; Example 30); settings: 48 hrs
Method: as §1, §2

TMPRSS2 mRNA [5] = experiment: TMPRSS2 expression in C4-2 cells; settings: 48 hrs; for Percent inhibition of TMPRSS2 expression: C4-2 cells, CSS + DHT medium
Method: as §3, §4

CNC(=O)c1ccc(N2C(=S)N(c3ccc(C#N)c(C(F)(F)F)c3)C(=O)C2(C)C)cc1F [MDV3100, 4-(3-(4-cyano-3-(trifluoromethyl)phenyl)-5,5-dimethyl-4-oxo-2-thioxoimidazolidin-1-yl)-2-fluoro-N-methylbenzamide, reference compound]
Percent inhibition of PSA expression (PSA mRNA; CSS + DHT medium, 0.04 μM): 0%
Percent inhibition of PSA expression (PSA mRNA; CSS + DHT medium, 0.2 μM): 0%
Percent inhibition of PSA expression (PSA mRNA; CSS + DHT medium, 1 μM): 37%
Percent inhibition of PSA expression (PSA mRNA; CSS + DHT medium, 5.0 μM): 45%
Percent inhibition of PSA expression (PSA mRNA; complete medium, 0.04 μM): 8%
Percent inhibition of PSA expression (PSA mRNA; complete medium, 0.2 μM): 27%
Percent inhibition of PSA expression (PSA mRNA; complete medium, 1 μM): 73%
Percent inhibition of PSA expression (PSA mRNA; complete medium, 5.0 μM): 88%
Proliferation (% untreated control) (C4-2B cells; CSS + DHT medium, 0.04 μM): 125 % untreated control
Proliferation (% untreated control) (C4-2B cells; CSS + DHT medium, 0.2 μM): 100 % untreated control
Proliferation (% untreated control) (C4-2B cells; CSS + DHT medium, 1 μM): 83 % untreated control
Proliferation (% untreated control) (C4-2B cells; CSS + DHT medium, 5.0 μM): 17 % untreated control
Proliferation (% untreated control) (C4-2B cells; complete medium, 0.04 μM): 131 % untreated control
Proliferation (% untreated control) (C4-2B cells; complete medium, 0.2 μM): 105 % untreated control
Proliferation (% untreated control) (C4-2B cells; complete medium, 1 μM): 72 % untreated control
Proliferation (% untreated control) (C4-2B cells; complete medium, 5.0 μM): 60 % untreated control
proliferation of C4-2B cells (C4-2B cells; complete medium or CSS+1 nM DHT): reduced proliferation of the cells in a dose dependent compared to the control
Percent inhibition of TMPRSS2 expression compared to the control group in 8 hours (TMPRSS2 mRNA [1]; 0.04 μM): 0%
Percent inhibition of TMPRSS2 expression compared to the control group in 24 hours (TMPRSS2 mRNA [1]; 0.04 μM): 23%
Percent inhibition of TMPRSS2 expression compared to the control group in 48 hours (TMPRSS2 mRNA [1]; 0.04 μM): 5%
Percent inhibition of TMPRSS2 expression compared to the control group in 8 hours (TMPRSS2 mRNA [1]; 0.2 μM): 6%
Percent inhibition of TMPRSS2 expression compared to the control group in 24 hours (TMPRSS2 mRNA [1]; 0.2 μM): 31%
Percent inhibition of TMPRSS2 expression compared to the control group in 48 hours (TMPRSS2 mRNA [1]; 0.2 μM): 16%
Percent inhibition of TMPRSS2 expression compared to the control group in 8 hours (TMPRSS2 mRNA [1]; 1 μM): 45%
Percent inhibition of TMPRSS2 expression compared to the control group in 24 hours (TMPRSS2 mRNA [1]; 1 μM): 63%
Percent inhibition of TMPRSS2 expression compared to the control group in 48 hours (TMPRSS2 mRNA [1]; 1 μM): 46%
Percent inhibition of TMPRSS2 expression compared to the control group in 8 hours (TMPRSS2 mRNA [1]; 5.0 μM): 52%
Percent inhibition of TMPRSS2 expression compared to the control group in 24 hours (TMPRSS2 mRNA [1]; 5.0 μM): 72%
Percent inhibition of TMPRSS2 expression compared to the control group in 48 hours (TMPRSS2 mRNA [1]; 5.0 μM): 59%
TMPRSS2 expression (TMPRSS2 mRNA [1]; time course): also reduced downstream gene expressions but not as potently as that with the ISIS oligonucleotides
Percent expression of AR compared to the control group in 8 hours (AR mRNA [2]; 0.04 μM): 99%
Percent expression of AR compared to the control group in 24 hours (AR mRNA [2]; 0.04 μM): 88%
Percent expression of AR compared to the control group in 48 hours (AR mRNA [2]; 0.04 μM): 94%
Percent expression of AR compared to the control group in 8 hours (AR mRNA [2]; 0.2 μM): 100%
Percent expression of AR compared to the control group in 24 hours (AR mRNA [2]; 0.2 μM): 99%
Percent expression of AR compared to the control group in 48 hours (AR mRNA [2]; 0.2 μM): 94%
Percent expression of AR compared to the control group in 8 hours (AR mRNA [2]; 1 μM): 92%
Percent expression of AR compared to the control group in 24 hours (AR mRNA [2]; 1 μM): 96%
Percent expression of AR compared to the control group in 48 hours (AR mRNA [2]; 1 μM): 113%
Percent expression of AR compared to the control group in 24 hours (AR mRNA [2]; 5.0 μM): 84%
Percent expression of AR compared to the control group in 48 hours (AR mRNA [2]; 5.0 μM): 126%
AR expression (AR mRNA [2]; C4-2B cells, 8, 24 and 48 hours): increased AR expression at the 48 hour time-point
Percent expression of AR (AR mRNA [3]; 0.04 μM): 101%
Percent expression of AR (AR mRNA [3]; 0.2 μM): 109%
AR expression (AR mRNA [3]; CSS+DHT medium): increased AR expression in the cells
AR expression (AR mRNA [3]; complete medium): increased AR expression in the cells
Percent expression of AR in C4-2 cells cultured in complete medium (AR mRNA [3]; complete medium, 0.04 μM): 95%
Percent expression of AR in C4-2 cells cultured in complete medium (AR mRNA [3]; complete medium, 0.2 μM): 99%
Percent expression of AR in C4-2 cells cultured in complete medium (AR mRNA [3]; complete medium, 1 μM): 132%
Percent expression of AR in C4-2 cells cultured in complete medium (AR mRNA [3]; complete medium, 5.0 μM): 137%
Percent expression of AR (AR mRNA [4]; CSS + DHT medium, 0.04 μM): 112%
Percent expression of AR (AR mRNA [4]; CSS + DHT medium, 0.2 μM): 144%
Percent expression of AR (AR mRNA [4]; CSS + DHT medium, 1 μM): 165%
Percent expression of AR (AR mRNA [4]; CSS + DHT medium, 5.0 μM): 173%
AR expression (AR mRNA [4]; CSS+DHT medium): increased AR expression in the cells
Percent expression of AR (AR mRNA [4]; complete medium, 0.04 μM): 108%
Percent expression of AR (AR mRNA [4]; complete medium, 0.2 μM): 121%
Percent expression of AR (AR mRNA [4]; complete medium, 1 μM): 157%
Percent expression of AR (AR mRNA [4]; complete medium, 5.0 μM): 182%
AR expression (AR mRNA [4]; complete medium): increased AR expression in the cells
Percent inhibition of TMPRSS2 expression (TMPRSS2 mRNA [5]; 0.04 μM): 9%
Percent inhibition of TMPRSS2 expression (TMPRSS2 mRNA [5]; 0.2 μM): 0%
Percent inhibition of TMPRSS2 expression (TMPRSS2 mRNA [5]; 1 μM): 44%
Percent inhibition of TMPRSS2 expression (TMPRSS2 mRNA [5]; 5.0 μM): 78%
Percent inhibition of TMPRSS2 expression in C4-2 cells cultured in complete medium (TMPRSS2 mRNA [5]; 0.04 μM): 10%
Percent inhibition of TMPRSS2 expression in C4-2 cells cultured in complete medium (TMPRSS2 mRNA [5]; 0.2 μM): 20%
Percent inhibition of TMPRSS2 expression in C4-2 cells cultured in complete medium (TMPRSS2 mRNA [5]; 1 μM): 44%
Percent inhibition of TMPRSS2 expression in C4-2 cells cultured in complete medium (TMPRSS2 mRNA [5]; 5.0 μM): 67%
